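Where inhibition never reached the appropriate level, the endpoint shown equals the highest concentration tested. Otherwise, values were interpolated linearly from a five-concentration, 48-hour dose response in 96-well plates. The concentration for 50% growth inhibition is given as GI50.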 Activity calls are given as the source filed them. No stated cut-off is given here; in the data, active = GI50 up to about 1.1 µM and inactive = higher.
Experiments:
Assay in all cases: NCI tumour cell line growth inhibition, 48 h
ACHN = tested on: ACHN
SF-539 = tested on: SF-539
U-251 = tested on: U-251
NCI-H226 = tested on: NCI-H226
SN12C = tested on: SN12C
NCI-H23 = tested on: NCI-H23
LOX IMVI = tested on: LOX IMVI
OVCAR-5 = tested on: OVCAR-5
HT-29 = tested on: HT-29
COLO 205 = tested on: COLO 205
OVCAR-3 = tested on: OVCAR-3
M14 = tested on: M14
EKVX = tested on: EKVX
Malme-3M = tested on: Malme-3M
RPMI-8226 = tested on: RPMI-8226
UO-31 = tested on: UO-31
SF-295 = tested on: SF-295
UACC-257 = tested on: UACC-257
MOLT-4 = tested on: MOLT-4
SK-MEL-28 = tested on: SK-MEL-28

| SMILES | GI50 (ACHN) | GI50 (SF-539) | GI50 (U-251) | GI50 (NCI-H226) | GI50 (SN12C) | GI50 (NCI-H23) | GI50 (LOX IMVI) | GI50 (OVCAR-5) | GI50 (HT-29) | GI50 (COLO 205) | GI50 (OVCAR-3) | GI50 (M14) | GI50 (EKVX) | GI50 (Malme-3M) | GI50 (RPMI-8226) | GI50 (UO-31) | GI50 (SF-295) | GI50 (UACC-257) | GI50 (MOLT-4) | GI50 (SK-MEL-28) |
| --- | --- | --- | --- | --- | --- | --- | --- | --- | --- | --- | --- | --- | --- | --- | --- | --- | --- | --- | --- | --- |
| O=C(CCc1ccc(O)c(O)c1)OCCc1ccccc1 | 59.7 µM (inactive) | 18.6 µM (inactive) | > 100 µM (inactive) | > 100 µM (inactive) | > 61.1 µM (inactive) | > 65.3 µM (inactive) | 22.5 µM (inactive) | > 100 µM (inactive) | > 100 µM (inactive) | 42.7 µM (inactive) | 29.6 µM (inactive) | 67.3 µM (inactive) | > 100 µM (inactive) | > 88.9 µM (inactive) | 18.9 µM (inactive) | > 80.9 µM (inactive) | > 100 µM (inactive) | > 82.2 µM (inactive) | 15.1 µM (inactive) | > 100 µM (inactive) |
| O=c1[nH]c2cc(C(F)(F)F)ccc2nc1C(F)(F)F | 37.3 µM (inactive) | 25.2 µM (inactive) | 42 µM (inactive) | 28.6 µM (inactive) | 29.7 µM (inactive) | 27.2 µM (inactive) | 30.8 µM (inactive) | 36.9 µM (inactive) | 36.4 µM (inactive) | 30.9 µM (inactive) | 18.5 µM (inactive) | 45.1 µM (inactive) | 32.3 µM (inactive) | 35.2 µM (inactive) | 31.5 µM (inactive) | 30.4 µM (inactive) | 30 µM (inactive) | 27.6 µM (inactive) | 38.4 µM (inactive) | 68.9 µM (inactive) |
| CCOC(=O)c1nc2ccccc2n(CC)c1=O | > 100 µM (inactive) | > 100 µM (inactive) | > 100 µM (inactive) | > 100 µM (inactive) | > 100 µM (inactive) | > 100 µM (inactive) | > 100 µM (inactive) | > 100 µM (inactive) | > 100 µM (inactive) | > 100 µM (inactive) | > 100 µM (inactive) | > 100 µM (inactive) | > 100 µM (inactive) | > 100 µM (inactive) | > 100 µM (inactive) | > 100 µM (inactive) | > 100 µM (inactive) | > 100 µM (inactive) | > 100 µM (inactive) | > 100 µM (inactive) |
| COc1ccc(NC(=O)C(=O)NO)c(OC)c1 | 15.9 µM (inactive) | 20.9 µM (inactive) | 16.7 µM (inactive) | 22.3 µM (inactive) | 20 µM (inactive) | 18.6 µM (inactive) | 14.2 µM (inactive) | 19.5 µM (inactive) | 20.7 µM (inactive) | 21 µM (inactive) | 16.6 µM (inactive) | 16.3 µM (inactive) | 14.9 µM (inactive) | 23.8 µM (inactive) | 15.1 µM (inactive) | 16.2 µM (inactive) | 14 µM (inactive) | 22.2 µM (inactive) | 11.9 µM (inactive) | 17.5 µM (inactive) |
| CC(C)(/N=N/C(C)(C)C(=O)NCCO)C(=O)NCCO | > 100 µM (inactive) | > 100 µM (inactive) | > 100 µM (inactive) | > 100 µM (inactive) | > 100 µM (inactive) | > 100 µM (inactive) | > 100 µM (inactive) | > 100 µM (inactive) | > 100 µM (inactive) | > 100 µM (inactive) | > 100 µM (inactive) | > 100 µM (inactive) | > 100 µM (inactive) | > 100 µM (inactive) | > 100 µM (inactive) | > 100 µM (inactive) | > 100 µM (inactive) | > 100 µM (inactive) | > 100 µM (inactive) | > 100 µM (inactive) |
| COc1ccc(-c2cc(=O)c3c(OC)c(O)c(OC)cc3o2)cc1 | 30.5 µM (inactive) | 77.4 µM (inactive) | 63.1 µM (inactive) | 70 µM (inactive) | 26.9 µM (inactive) | 48.5 µM (inactive) | 36.9 µM (inactive) | > 100 µM (inactive) | 35.5 µM (inactive) | 49 µM (inactive) | 34 µM (inactive) | 58.3 µM (inactive) | 50.8 µM (inactive) | 96.2 µM (inactive) | 27.8 µM (inactive) | 30.7 µM (inactive) | 30.8 µM (inactive) | 36.1 µM (inactive) | 59.3 µM (inactive) | > 100 µM (inactive) |
| O=c1oc2ccccc2cc1-c1cn2cc(Cl)ccc2n1 | 0.586 µM (active) | 1.48 µM (inactive) | 0.653 µM (active) | 15.6 µM (inactive) | 2.98 µM (inactive) | 3.09 µM (inactive) | 0.698 µM (active) | 10.1 µM (inactive) | 7.11 µM (inactive) | 0.865 µM (active) | 0.497 µM (active) | 0.544 µM (active) | 21.6 µM (inactive) | 0.458 µM (active) | 0.532 µM (active) | 1.32 µM (inactive) | 0.535 µM (active) | 4.58 µM (inactive) | 0.422 µM (active) | 2.08 µM (inactive) |
| Cc1ncc([N+](=O)[O-])n1CC[N+](C)([O-])CCCCn1ccnc1[N+](=O)[O-] (stereo not given) | > 100 µM (inactive) | > 100 µM (inactive) | > 100 µM (inactive) | > 100 µM (inactive) | > 100 µM (inactive) | > 100 µM (inactive) | > 100 µM (inactive) | > 100 µM (inactive) | > 100 µM (inactive) | > 100 µM (inactive) | > 100 µM (inactive) | > 100 µM (inactive) | > 100 µM (inactive) | > 100 µM (inactive) | > 100 µM (inactive) | > 100 µM (inactive) | > 100 µM (inactive) | > 100 µM (inactive) | > 100 µM (inactive) | > 100 µM (inactive) |
| Cc1ccc([N+](=O)[O-])cc1S(=O)(=O)Nc1ccc(C2=NN(c3ccc([N+](=O)[O-])cc3[N+](=O)[O-])C(c3ccccc3)C2)cc1 (stereo not given) | 17.6 µM (inactive) | 20.3 µM (inactive) | 12.7 µM (inactive) | 17.4 µM (inactive) | 17.2 µM (inactive) | 14.6 µM (inactive) | 17.1 µM (inactive) | 23.7 µM (inactive) | 16.1 µM (inactive) | 19.2 µM (inactive) | 14.2 µM (inactive) | 17.4 µM (inactive) | 18.6 µM (inactive) | 17.9 µM (inactive) | 9.27 µM (inactive) | 14.8 µM (inactive) | 14.3 µM (inactive) | 16.2 µM (inactive) | 16.8 µM (inactive) | 34.5 µM (inactive) |
| CN(/N=C/c1cccc2cccnc12)c1ccc([N+](=O)[O-])cc1[N+](=O)[O-] | 22 µM (inactive) | 11.3 µM (inactive) | 13.9 µM (inactive) | 24 µM (inactive) | 46.1 µM (inactive) | 24.5 µM (inactive) | 57.9 µM (inactive) | 70.1 µM (inactive) | > 100 µM (inactive) | 86.3 µM (inactive) | 16.4 µM (inactive) | 54.7 µM (inactive) | 45.8 µM (inactive) | 18.2 µM (inactive) | > 90.2 µM (inactive) | 37.3 µM (inactive) | 13 µM (inactive) | 82 µM (inactive) | > 100 µM (inactive) | > 88.1 µM (inactive) |
| Oc1ccccc1C1C=C(c2ccccc2)NC(N2CCCCC2)=C1c1nc2ccccc2[nH]1 (stereo not given) | 18.2 µM (inactive) | 15.9 µM (inactive) | 15.1 µM (inactive) | 16.7 µM (inactive) | 16.1 µM (inactive) | 15.3 µM (inactive) | 17 µM (inactive) | 17.9 µM (inactive) | 15.2 µM (inactive) | 2.19 µM (inactive) | 14.6 µM (inactive) | 13 µM (inactive) | 6.11 µM (inactive) | 15.8 µM (inactive) | 9.57 µM (inactive) | 11.1 µM (inactive) | 15.5 µM (inactive) | 16 µM (inactive) | 13.7 µM (inactive) | 15.9 µM (inactive) |
| CN(CCN(C)CCN(C)C(=O)Cc1ccc(Cl)c(Cl)c1)CCN1CCCC1 | 45.9 µM (inactive) | 21.8 µM (inactive) | 19 µM (inactive) | 30.5 µM (inactive) | 39 µM (inactive) | 30.5 µM (inactive) | 16.6 µM (inactive) | 37.5 µM (inactive) | 7.36 µM (inactive) | 16.3 µM (inactive) | 63.5 µM (inactive) | 25.9 µM (inactive) | 45.4 µM (inactive) | 20.5 µM (inactive) | 5.5 µM (inactive) | 1.92 µM (inactive) | 19.6 µM (inactive) | 5.11 µM (inactive) | 10.6 µM (inactive) | 1.94 µM (inactive) |
